The record followed here is PubChem BioAssay AID330 (DTP/NCI, 2004).

Several values for one entry are separate records, joined by “and”; a condition that tells them apart may be missing. Equal entries are not always repeated. Inconclusive results and toxic doses are left out.

The assay relates to P388 leukemia ip, CD2F1 mice, survival T/C. As to the kind of experiment: NCI In Vivo Anticancer Drug Screen. Data for tumor model P388 Leukemia (intraperitoneal) in CD2F1 (CDF1) mice. The settings on record: endpoint: median survival time, higher = longer survival. An outline of the steps:
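Mice carrying the transplanted tumor received test compound or vehicle. Survival was recorded in each group, and the value is the treated-group measurement divided by that of the vehicle-treated control group.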

Setting [1] is: dose: 100.0 mg/kg/injection, schedule: Q04DX002 (ip), vehicle: Klucel (hydroxypropylcellulose) (HPC).
Setting [2] is: dose: 100.0 mg/kg/injection, schedule: Q01DX009 (ip), vehicle: saline with Tween-80.
Where [3] appears, read: dose: 200.0 mg/kg/injection, schedule: Q01DX009 (ip), vehicle: saline with Tween-80.
Where [4] appears, read: dose: 400.0 mg/kg/injection, schedule: Q01DX009 (ip), vehicle: saline with Tween-80.
The mark [5] stands for this setting: dose: 100.0 mg/kg/injection, schedule: Q04DX003 (ip), vehicle: saline with Tween-80.
Where [6] appears, read: dose: 200.0 mg/kg/injection, schedule: Q04DX003 (ip), vehicle: saline with Tween-80.
The mark [7] stands for this setting: dose: 400.0 mg/kg/injection, schedule: Q04DX003 (ip), vehicle: saline with Tween-80.
Setting [8] is: dose: 6.25 mg/kg/injection, schedule: Q01DX009 (ip), vehicle: Klucel (hydroxypropylcellulose) (HPC).
The mark [9] stands for this setting: dose: 25.0 mg/kg/injection, schedule: Q01DX009 (ip), vehicle: Klucel (hydroxypropylcellulose) (HPC).
The mark [10] stands for this setting: dose: 50.0 mg/kg/injection, schedule: Q01DX009 (ip), vehicle: Klucel (hydroxypropylcellulose) (HPC).
Where [11] appears, read: dose: 100.0 mg/kg/injection, schedule: Q01DX009 (ip), vehicle: Klucel (hydroxypropylcellulose) (HPC).
The mark [12] stands for this setting: dose: 60.0 mg/kg/injection, schedule: Q01DX005 (ip), vehicle: saline with Tween-80.
[13] abbreviates: dose: 120.0 mg/kg/injection, schedule: Q01DX005 (ip), vehicle: saline with Tween-80.
Where [14] appears, read: dose: 6.25 mg/kg/injection, schedule: Q01DX009 (ip), vehicle: saline with Tween-80.
Where [15] appears, read: dose: 12.5 mg/kg/injection, schedule: Q01DX009 (ip), vehicle: saline with Tween-80.
Where [16] appears, read: dose: 25.0 mg/kg/injection, schedule: Q01DX009 (ip), vehicle: saline with Tween-80.
Setting [17] is: dose: 50.0 mg/kg/injection, schedule: Q01DX005 (ip), vehicle: Klucel (hydroxypropylcellulose) (HPC).

On to `CC(=O)Nc1ccc(S(=O)(=O)Oc2noc3ccc(Cl)cc23)cc1`, for which the T/C reads like this: under setting [1], 98 % of control; (dose: 200.0 mg/kg/injection, schedule: Q04DX002 (ip), vehicle: Klucel (hydroxypropylcellulose) (HPC)) 98 % of control; (dose: 400.0 mg/kg/injection, schedule: Q04DX002 (ip), vehicle: Klucel (hydroxypropylcellulose) (HPC)) 93 % of control.

With `COc1ccc(C[n+]2ccc3ccccc3c2C#N)cc1OC`, the T/C (dose: 12.5 mg/kg/injection, schedule: Q04DX002 (ip), vehicle: saline) is 111 % of control and the T/C (dose: 25.0 mg/kg/injection, schedule: Q04DX002 (ip), vehicle: saline) is 109 % of control.

`CN(C)NP(=O)(NN(C)C)Oc1ccccc1`: the T/C is, setting by setting: (dose: 50.0 mg/kg/injection, schedule: Q01DX005 (ip), vehicle: saline) 97 % of control; (dose: 100.0 mg/kg/injection, schedule: Q01DX005 (ip), vehicle: saline) 99 % of control; (dose: 200.0 mg/kg/injection, schedule: Q01DX005 (ip), vehicle: saline) 103 % of control.

For `CCCCCCCC/C=C\CCCCCCCC(=O)OCCCCCCCCCCCCCCCCC`, the T/C under setting [2] was 100 % of control, the T/C under setting [3] was 100 % of control and the T/C under setting [4] was 96 % of control.

In the case of `Cc1nc2sc3cc4ccccc4cc3n2c(=O)c1CN1CCCCC1`, the T/C runs as follows: (dose: 25.0 mg/kg/injection, schedule: Q04DX002 (ip), vehicle: Klucel (hydroxypropylcellulose) (HPC)) 98 % of control; (dose: 50.0 mg/kg/injection, schedule: Q04DX002 (ip), vehicle: Klucel (hydroxypropylcellulose) (HPC)) 113 % of control; under setting [1], 113 % of control.

Turning to `CCCCCCCCCCCCO[P+](=O)OCCCCCCCCCCCC`, the T/C runs as follows: (dose: 50.0 mg/kg/injection, schedule: Q01DX009 (ip), vehicle: saline sonified) 110 % of control; (dose: 66.0 mg/kg/injection, schedule: Q01DX009 (ip), vehicle: saline with Tween-80) 109 % of control; (dose: 100.0 mg/kg/injection, schedule: Q01DX009 (ip), vehicle: saline sonified) 110 % of control; under setting [2], 100 % of control and 95 % of control; under setting [5], 95 % of control; (dose: 150.0 mg/kg/injection, schedule: Q01DX009 (ip), vehicle: saline with Tween-80) 100 % of control. The T/C is, setting by setting: under setting [3], 90 % of control; under setting [6], 91 % of control; under setting [4], 90 % of control; under setting [7], 95 % of control.

`CCCCCC[C@H]([C@H](C)O)n1cnc2c(N)ncnc21`: the T/C by setting is: (dose: 1.56 mg/kg/injection, schedule: Q01DX009 (ip), vehicle: Klucel (hydroxypropylcellulose) (HPC)) 100 % of control; (dose: 3.12 mg/kg/injection, schedule: Q01DX009 (ip), vehicle: Klucel (hydroxypropylcellulose) (HPC)) 100 % of control; (dose: 4.0 mg/kg/injection, schedule: Q01DX005 (ip), vehicle: Klucel (hydroxypropylcellulose) (HPC)) 100 % of control; under setting [8], 98 % of control; (dose: 8.0 mg/kg/injection, schedule: Q01DX005 (ip), vehicle: Klucel (hydroxypropylcellulose) (HPC)) 102 % of control; (dose: 12.5 mg/kg/injection, schedule: Q01DX009 (ip), vehicle: Klucel (hydroxypropylcellulose) (HPC)) 105 % of control. Moreover, the T/C by setting is: (dose: 16.0 mg/kg/injection, schedule: Q01DX005 (ip), vehicle: Klucel (hydroxypropylcellulose) (HPC)) 100 % of control; under setting [9], 105 % of control and 96 % of control; (dose: 32.0 mg/kg/injection, schedule: Q01DX005 (ip), vehicle: Klucel (hydroxypropylcellulose) (HPC)) 104 % of control; under setting [10], 104 % of control and 96 % of control; (dose: 64.0 mg/kg/injection, schedule: Q01DX005 (ip), vehicle: Klucel (hydroxypropylcellulose) (HPC)) 100 % of control; under setting [11], 98 % of control. The T/C (dose: 200.0 mg/kg/injection, schedule: Q01DX009 (ip), vehicle: Klucel (hydroxypropylcellulose) (HPC)) was 98 % of control.

For the compound `CC1(C)CN(Cc2ccccc2)C1(C)C#N` (stereo not drawn), the T/C reads like this: under setting [12], 100 % of control; under setting [13], 105 % of control.

In the case of `COc1cc(/C=N/NC(=O)CN(C)C)cc(OC)c1N(CCCl)CCCl`, the T/C is, setting by setting: under setting [8], 116 % of control; under setting [9], 152 % of control; under setting [10], 186 % of control and 189 % of control; under setting [11], 93 % of control.

For the compound `CCC/C=c1/[nH]c(=O)/c(=C\c2ccc(OC)cc2)[nH]c1=O`, the T/C is 101 % of control under setting [9], 96 % of control under setting [10] and 102 % of control under setting [11].

`CCOC(=O)N1Cc2cc3cc(Cl)ccc3nc2C1`: the T/C was 98 % of control (dose: 3.13 mg/kg/injection, schedule: Q01DX009 (ip), vehicle: saline with Tween-80); 105 % of control under setting [14]; 95 % of control (dose: 8.0 mg/kg/injection, schedule: Q01DX009 (ip), vehicle: saline with Tween-80); 105 % of control under setting [15]; 88 % of control (dose: 16.0 mg/kg/injection, schedule: Q01DX009 (ip), vehicle: saline with Tween-80); 116 % of control under setting [16]. The T/C reads like this: (dose: 32.0 mg/kg/injection, schedule: Q01DX009 (ip), vehicle: saline with Tween-80) 87 % of control; (dose: 64.0 mg/kg/injection, schedule: Q01DX009 (ip), vehicle: saline with Tween-80) 95 % of control; (dose: 128.0 mg/kg/injection, schedule: Q01DX009 (ip), vehicle: saline with Tween-80) 100 % of control.

Consider `COc1ccc2c(c1OC)N(C)CC1=C2OC(C)(C)C2C1CC1(C)CC2c2c(c3ccc(OC)c(OC)c3n(C)c2=O)O1` (stereo not drawn), for which the T/C (dose: 12.5 mg/kg/injection, schedule: Q01DX005 (ip), vehicle: Klucel (hydroxypropylcellulose) (HPC)) is 90 % of control; the T/C (dose: 25.0 mg/kg/injection, schedule: Q01DX005 (ip), vehicle: Klucel (hydroxypropylcellulose) (HPC)) is 93 % of control; the T/C under setting [17] was 90 % of control.

Turning to `CCOC(=O)C(N)Cc1ccc(N(CCCl)CCCl)cc1` (stereo not drawn), the T/C runs as follows: (dose: 0.5 mg/kg/injection, schedule: Q04DX003 (ip), vehicle: saline) 180 % of control; (dose: 1.0 mg/kg/injection, schedule: Q04DX003 (ip), vehicle: saline) 195 % of control; (dose: 2.0 mg/kg/injection, schedule: Q04DX003 (ip), vehicle: saline) 250 % of control; (dose: 3.13 mg/kg/injection, schedule: Q01DX009 (ip), vehicle: saline) 272 % of control; (dose: 6.25 mg/kg/injection, schedule: Q01DX009 (ip), vehicle: saline) 100 % of control; (dose: 6.25 mg/kg/injection, schedule: Q04DX003 (ip), vehicle: saline) 272 % of control. Moreover, the T/C reads like this: (dose: 12.5 mg/kg/injection, schedule: Q04DX003 (ip), vehicle: saline) 240 % of control; (dose: 63.0 micrograms/kg/injection, schedule: Q04DX003 (ip), vehicle: saline) 113 % of control; (dose: 125.0 micrograms/kg/injection, schedule: Q04DX003 (ip), vehicle: saline) 113 % of control.

Regarding `COc1cc(/C=N/OC(=O)Nc2ccccc2)cc(OC)c1OC`, the T/C under setting [14] was 96 % of control, the T/C under setting [15] is 91 % of control and the T/C under setting [16] was 91 % of control.

As for `CO/C=C1\CC(=O)N(C)C1=O`, the T/C is 110 % of control under setting [5], 97 % of control under setting [6] and 97 % of control under setting [7].

In the case of `COC(=O)c1nc(N)nc(C(=O)OC)c1C(=O)/C=C/c1ccccc1`, the T/C is, setting by setting: under setting [12], 100 % of control; under setting [13], 98 % of control.

As for `Brc1ccccc1CN=Cc1ccc2c(c1)OCO2`, the T/C is, setting by setting: under setting [17], 101 % of control; (dose: 100.0 mg/kg/injection, schedule: Q01DX005 (ip), vehicle: Klucel (hydroxypropylcellulose) (HPC)) 105 % of control; (dose: 200.0 mg/kg/injection, schedule: Q01DX005 (ip), vehicle: Klucel (hydroxypropylcellulose) (HPC)) 103 % of control.
